Converted amounts (≈) assume the structure as drawn. Where two headings read alike, the source gives them in different places.
Assays:
DMSO solubility = assay type: physicochemical
Recombinant BTK(C481S) = target: T1, Recombinant BTK(C481S) (Homo sapiens, UniProt Q06187, C481S); test: BTK C481S HTRF kinase assay; assay type: biochemical; settings: 30 min pre-incubation, 120 min reaction
T1 construct: purchased SignalChem
Protocol: [The procedure below names another variant; the source lists this variant under the same test.] (§1) Recombinant BTK wild type (BTK WT) was purchased from Thermo fisher.
(§2) In brief, recombinant kinases were pre-incubated in the presence or absence of compound at room temperature for 30 minutes. The reaction was initiated by the addition of the ATP and substrate peptide which could be phosphorylated by kinases in the reaction. After 120 minutes incubation, the reaction was stopped by the addition of the detection reagent mix containing EDTA.

[1] = target: T2, Recombinant BTK wild type (BTK WT) (Homo sapiens, UniProt Q06187); test: BTK WT HTRF kinase assay; assay type: biochemical; settings: 30 min pre-incubation, 120 min reaction
T2 construct: purchased Thermo fisher
Protocol: as §1, §2

[2] = In vitro human hepatocytes clearance assay; assay type: in vitro ADME
Protocol: In Vitro Rat/Human Hepatocytes Clearance Assay
Rat hepatocytes in male gender and human hepatocytes in mixed gender were obtained from commercial vendors (e.g., BioreclamationIVT) and stored at −150° C. prior to use. 10 mM stock solutions of tested compounds were prepared in DMSO. Thawing medium and supplement incubation medium (serum-free) were placed in a 37° C. water bath for at least 15 minutes prior to use. Stock solutions were diluted to 100 μM by combining 198 μL acetonitrile and 2 μL of 10 mM stock solution.
Vials of cryopreserved hepatocytes were removed from storage, ensured that vials remain at cryogenic temperatures. The vials were thawed in a 37° C. water bath with gently shaking. Vials were kept in a water bath until all ice crystals had dissolved and were no longer visible. Vials were sprayed with 70% ethanol before being transferred to a biosafety cabinet. And then the contents were poured into the 50 mL thawing medium conical tube. Vials were centrifuged at 100 g for 10 minutes at room temperature. Thawing medium was aspirated and hepatocytes were resuspended with serum-free incubation medium to yield ^˜1.5×10^6 cells/mL.
Cell viability and density were counted using a Trypan Blue exclusion, and then cells were diluted with serum-free incubation medium to a working cell density of 1×10^6 viable cells/ml. A portion of the hepatocytes at 1×10^6 viable cells/mL was boiled for 10 min prior to adding to the plate as negative control to eliminate the enzymatic activity so that little or no substrate turnover should be observed. The inactivated hepatocytes were used to prepare negative samples, which were used to exclude the misleading factor that resulted from instability of chemical itself.
Aliquots of 247.5 μL hepatocytes were dispensed into each well of a 96-well non-coated plate. The plate was placed in the incubator on an orbital shaker for approximately 10 minutes. Aliquots of 2.5 μL of the 100 μM test compounds were added into respective wells of the non-coated 96-well plate to start the reaction. This assay was performed in duplicate. The plate was incubated in the incubator on an orbital shaker for the designed time points. 20 μL of contents were transferred and mixed with 6 volumes (120 μL) of cold acetonitrile with internal standard to terminate the reaction at time points of 5, 15, 30, 45, 60, 80 and 100 minutes. Samples were centrifuges for 20 minutes at 4000 g and aliquots of 100 μl of the supernatants were used for LC-MS/MS analysis for measurement of test compounds.
In vitro hepatocyte clearance was estimated based on determination of elimination half-life (T1/2) of compounds disappearance from their initial concentrations. Peak area ratios of each compound (test or control) to IS was calculated. Ln (% Control) versus Incubation Time (min) curve was plotted, and the slope of a linear fitting line was calculated. Drug elimination rate constant k (min-1), T1/2 (min), and in vitro intrinsic clearance CLint (μL/min/E6) was calculated according to the following equations: k=−slope T1/2=0.693/k CLint=k/Chep • Where Chep (cells×μL-1) is the cell concentration in the incubation system. Procedure for Log D Determination

[3] = Protein binding in human plasma by equilibrium dialysis; assay type: in vitro ADME; settings: 18 hours at 37° C.; for fraction unbound at 18 h, 5 μM: human, plasma, pH 7.4, human plasma, read-out: hPPB (fu %); for hPPB (fu %): human plasma, 5 μM, fraction unbound
Protocol: [formula] DF means the dilution factor. Procedure for Protein Binding Measurements in Human Plasma by Using Equilibrium Dialysis
Add 597 μL of blank plasma into each vial of a new plastic plate or separate plastic tube by addition of 3 μL of the working solution of each cassette, vortex at 1,000 rpm for 5 minutes. The final percent volume of organic solvent is 0.5% and the final concentration for test compound is 5 μM. Immediately transfer 50 μL of the spiked plasma suspension to a 96-well plate to act as T=0 control sample. The samples are treated the same as the samples after incubation. Place all remaining spiked plasma in the incubator for the duration of the study.
Place inserts open end up into the wells of the base plate. Add 500 μL of phosphate buffer (pH 7.4) to the buffer chamber, which is indicated by the white ring. Add 300 μL of spiked plasma sample into the sample chamber, which is indicated by the red ring. Cover the unit with gas permeable lid and incubate for 18 hours at 37° C. at 300 rpm with 5% CO2 on an orbital shaker in the CO2 incubator. At the end of incubation, remove lid and pipette 50 μL of post-dialysis samples from both buffer and plasma chambers into separated 96-well plate for analysis, respectively.
At the same time, the remaining spiked plasma sample in the plastic plate or separate plastic tube is incubated for 18 hours at 37° C. with 5% CO2 in the CO2 incubator. At T=18 hours, transfer 50 μL of the original spiked plasma suspension to the 96-well plate for analysis.
Add 50 μL of Human plasma to the buffer samples, and an equal volume of PBS to the collected plasma samples. Vortex the plate at 1,000 rpm for 2 minutes and add 400 μL of acetonitrile containing an appropriate internal standard (IS) to precipitate protein and release compound. Vortex at 1,000 rpm for 10 minutes. Centrifuge for 30 minutes at 4,000 rpm. Transfer 250 μl of the supernatant to new 96-well plates and centrifuge again (4,000 rpm, 30 minutes). Then transfer 100 μL of the supernatant to new 96-well plates for analysis. Add 100 μL of distilled water to each sample and vortex for 5 minutes at 1,000 rpm for analysis by LC-MS/MS. All compounds are tested in singlicate at 5 μM in human plasma.
All calculations are carried out using Microsoft Excel.
Calculate the percentage of unbound, percentage of bound and recovery of test compound as follows: […]

[4] = target: T3, p-BTK (Phospho-Btk Tyr223) in TMD-8 cells (Homo sapiens, UniProt Q06187); test: TMD8 cell line p-BTK Elisa assay; assay type: cell-based; settings: for Maximal Inhibition Level: p-BTK ELISA; for IC50: pervanadate 100 μM, Tyr223 ELISA
T3 construct: endogenous in cells; host or cells: TMD-8
Protocol: The test compounds were added to the cells and cells were incubated for 0.5 hour at 37° C., 5% CO2. Then pervanadate solution was added to the cells to make a final concentration of 100 μM, and cells were incubated for a further 1 hour at 37° C., 5% CO2. […] The plate was read on a Multiscan Spectrum reader set to 450 nm wavelengths.

T2 sequence (Q06187 whole entry): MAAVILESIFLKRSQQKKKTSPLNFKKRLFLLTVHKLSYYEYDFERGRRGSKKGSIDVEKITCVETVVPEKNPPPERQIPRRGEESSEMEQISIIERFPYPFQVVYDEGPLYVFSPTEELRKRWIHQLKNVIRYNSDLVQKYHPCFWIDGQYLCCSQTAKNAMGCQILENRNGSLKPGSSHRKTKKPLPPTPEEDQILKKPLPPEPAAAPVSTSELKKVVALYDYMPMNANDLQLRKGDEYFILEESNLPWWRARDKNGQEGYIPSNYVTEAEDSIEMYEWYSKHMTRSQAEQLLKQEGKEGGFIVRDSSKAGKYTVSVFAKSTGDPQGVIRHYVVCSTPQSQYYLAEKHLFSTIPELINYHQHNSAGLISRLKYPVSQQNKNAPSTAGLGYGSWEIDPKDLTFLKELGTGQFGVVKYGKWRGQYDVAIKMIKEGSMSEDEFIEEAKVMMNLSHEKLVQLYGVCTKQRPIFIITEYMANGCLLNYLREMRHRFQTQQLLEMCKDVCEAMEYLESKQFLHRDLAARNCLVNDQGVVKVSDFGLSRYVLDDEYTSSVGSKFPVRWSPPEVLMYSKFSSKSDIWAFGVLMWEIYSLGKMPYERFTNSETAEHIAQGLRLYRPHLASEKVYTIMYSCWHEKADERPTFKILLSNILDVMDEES
T3 sequence (Q06187 whole entry): as above
T1 sequence (Q06187 whole entry C481S): as the sequence (Q06187 whole entry) above, with C481S counted along it

Compound | solubility (DMSO solubility) [µM] | IC50 (Recombinant BTK(C481S)) [nM] | IC50 [1] [nM] | Human Hep Clint [2] [μL/min/10∧6 cells] | fraction unbound at 18 h, 5 μM [3] | Maximal Inhibition Level [4] [%] | IC50 [4] [nM] | hPPB (fu %) [3] [%] | solubility (DMSO solubility; kinetic from dmso stock) [µM]
Nc1ncnn2c(C3CCC(CO)OC3)nc(-c3ccc(Oc4ccccc4)c(F)c3F)c12 (centres unmarked) [Compound 12, (5-(4-amino-5-(2,3-difluoro-4-phenoxyphenyl)imidazo[1,5-f][1,2,4]triazin-7-yl)tetrahydro-2H-pyran-2-yl)methanol] | 45.7 (≈ 20.7 µg/mL) | 0.27 | 0.27 | 2.0 | 0.074 | 97.0 | 23.2 |  | 
Nc1nccn2c(C3CCC(CO)OC3)nc(-c3ccc(Oc4ccccc4)cc3F)c12 (single isomer, unassigned) [Compound 3, Trans-(5-(8-amino-1-(2-fluoro-4-phenoxyphenyl)imidazo[1,5-a]pyrazin-3-yl)tetrahydro-2H-pyran-2-yl)methanol] | 34.1 (≈ 14.8 µg/mL) | 6.59 | 6.29 | 12.9 |  | 96.2 | 78.4 | 11.9 | 
Nc1nccn2c(C3CCC(CO)OC3)nc(-c3ccc(Oc4ccccc4)cc3F)c12 (single isomer, unassigned) [Compound 2, Trans-(5-(8-amino-1-(2-fluoro-4-phenoxyphenyl)imidazo[1,5-a]pyrazin-3-yl)tetrahydro-2H-pyran-2-yl)methanol] | 15.1 (≈ 6.56 µg/mL) | 0.66 | 0.6 | 4.6 | 0.106 | 98.4 | 29.1 |  | 
Nc1ncnn2c(C3CCC(CO)OC3)nc(-c3ccc(Oc4cccc(F)c4F)cc3)c12 (centres unmarked) [Compound 14, (5-(4-amino-5-(4-(2,3-difluorophenoxy)phenyl)imidazo[5,1-f][1,2,4]triazin-7-yl)tetrahydro-2H-pyran-2-yl)methanol] |  | 0.86 | 0.7 | 2.5 | 0.049 | 98.0 | 24.3 |  | 48 (≈ 21.8 µg/mL)
Nc1nccn2c(C3CCC(CO)OC3)nc(-c3ccc(Oc4ccccc4)c(F)c3F)c12 (single isomer, unassigned) [Compound 5, (5-(8-amino-1-(2,3-difluoro-4-phenoxyphenyl)imidazo[1,5-a]pyrazin-3-yl)tetrahydro-2H-pyran-2-yl)methanol] | 61.9 (≈ 28 µg/mL) | 5.42 | 4.92 | 9.0 |  | 95.8 | 48.7 | 9.0 | 
Nc1ncnn2c(C3CCC(CO)OC3)nc(-c3ccc(Oc4ccccc4)cc3F)c12 (single isomer, unassigned) [Compound 8, (5-(4-amino-5-(2-fluoro-4-phenoxyphenyl)imidazo[5,1-f][1,2,4]triazin-7-yl)tetrahydro-2H-pyran-2-yl)methanol] | 21.0 (≈ 9.14 µg/mL) | 2.8 | 3.45 | 6.1 | 0.093 | 100.9 | 42.1 |  | 
Nc1nccn2c(C3CCC(CO)OC3)nc(-c3ccc(Oc4ccccc4)cc3)c12 (centres unmarked) [Compound 1, (5-(8-amino-1-(4-phenoxyphenyl)imidazo[1,5-a]pyrazin-3-yl)tetrahydro-2H-pyran-2-yl)methanol] |  | 1.06 | 1.16 | 28.9 | 0.098 | 97.9 | 18.9 |  | 51.3 (≈ 21.4 µg/mL)
Nc1ncnn2c(C3CCC(CO)OC3)nc(-c3ccc(Oc4ccccc4)cc3F)c12 (single isomer, unassigned) [Compound 9, (5-(4-amino-5-(2-fluoro-4-phenoxyphenyl)imidazo[1,5-a][1,2,4]triazin-7-yl)tetrahydro-2H-pyran-2-yl)methanol] | 20.3 (≈ 8.84 µg/mL) | 6.42 | 8.64 | 5.9 |  | 107.7 | 124 | 5.8 | 
Nc1nccn2c(C3CCC(CO)OC3)nc(-c3ccc(Oc4cccc(F)c4F)cc3)c12 (single isomer, unassigned) [Compound 6, (5-(8-amino-1-(4-(2,3-difluorophenoxy)phenyl)imidazo[1,5-a]pyrazin-3-yl)tetrahydro-2H-pyran-2-yl)methanol] |  | 0.42 | 0.62 | 2.1 | 0.075 | 98.8 | 26.2 |  | 43.9 (≈ 19.9 µg/mL)
Nc1nccn2c(C3CCC(CO)OC3)nc(-c3ccc(Oc4cccc(F)c4F)cc3)c12 (single isomer, unassigned) [Compound 7, (5-(8-amino-1-(4-(2,3-difluorophenoxy)phenyl)imidazo[1,5-a]pyrazin-3-yl)tetrahydro-2H-pyran-2-yl)methanol] | 45.8 (≈ 20.7 µg/mL) | 1.53 | 1.59 | 3.3 |  | 97.9 | 138 | 7.3 | 
Nc1ncnn2c(C3CCC(CO)OC3)nc(-c3ccc(Oc4ccccc4)cc3F)c12 (single isomer, unassigned) [Compound 10, Trans-(5-(4-amino-5-(2-fluoro-4-phenoxyphenyl)imidazo[5,1-f][1,2,4]triazin-7-yl)tetrahydro-2H-pyran-2-yl)methanol] | 20.5 (≈ 8.93 µg/mL) | 0.95 | 0.9 | 1.7 |  | 98.5 | 29 | 8.1 | 

Reference: patent US12624039B2, “BTK inhibitors” (DIZAL (JIANGSU) PHARMACEUTICAL CO., LTD., priority 2020, dated 2026)
